According to ChEMBL document CHEMBL6127031, “Novel multitarget directed ligands inspired by riluzole: A serendipitous synthesis of substituted benzo[b][1,4]thiazepines potentially useful as neuroprotective agents” (Bioorg Med Chem, 2024):
Each block holds one molecule with its values, some of them ahead of it. The source made the active and inactive calls. No cut-off for these calls is given here.

Key:
[1] = Permeability of the compound assessed as membrane retention rate by PAMPA method; format: ADME
SH-SY5Y [2] = experiment: Inhibition of K channel in human SH-SY5Y cells assessed as decrease in maximum conductance at 50 uM under +25 to +55 mV by whole-cell patch clamp assay relative to control; format: cell-based
SH-SY5Y [3] = experiment: Inhibition of K channel in human SH-SY5Y cells assessed as change in channel activation at 50 uM under +25 to +55 mV by whole-cell patch clamp assay; format: cell-based
Cerebral cortex [4] = experiment: Neuroprotective activity against OGD/R induced injury in male Wistar rat brain cortical slices assessed as reversal of LDH release at 0.01 to 10 uM by spectrophometric analysis; format: functional, tissue-based; details: dose 0.01-10 µM
SH-SY5Y [5] = experiment: Inhibition of Na channel in human SH-SY5Y cells assessed as change in channel activation at 50 uM under -30 to + 20 mV by whole-cell patch clamp assay; format: cell-based
SH-SY5Y [6] = experiment: Inhibition of Na channel in human SH-SY5Y cells assessed as maximum conductance at 50 uM by whole-cell patch clamp assay relative to control; format: cell-based
[7] = Apparent permeability of the compound in PBS buffer at pH 7.4 incubated for 4 hrs under shaking condition by LC-UV-MS analysis; format: ADME; details: not told
SH-SY5Y [8] = experiment: Inhibition of Na channel in human SH-SY5Y cells assessed as normalized peak current density at 50 uM under -25 mV by whole-cell patch clamp assay; format: cell-based
SH-SY5Y [9] = experiment: Inhibition of K channel in human SH-SY5Y cells assessed as reduction in steady-state component of KDR current at 50 uM under +60mV by whole-cell patch clamp assay relative to control; format: cell-based
Cerebral cortex [10] = experiment: Neuroprotective activity against OGD/R induced injury in male Wistar rat brain cortical slices assessed as reversal of tissue water gain at 0.01 to 10 uM; format: functional, tissue-based; details: dose 0.01-10 µM
SH-SY5Y [11] = experiment: Inhibition of Na channel in human SH-SY5Y cells assessed as reduction in current amplitude at 50 uM by whole-cell patch clamp assay relative to control; format: cell-based
Cerebral cortex [12] = experiment: Neuroprotective activity against OGD/R induced injury in male Wistar rat brain cortical slices assessed as effect on LDH release at 10 uM by spectrophometric analysis; format: functional, tissue-based
Cerebral cortex [13] = experiment: Neuroprotective activity against OGD/R induced injury in male Wistar rat brain cortical slices assessed as effect on tissue edema at 10 uM; format: functional, tissue-based
Cerebral cortex [14] = experiment: Neuroprotective activity against OGD/R induced injury in male Wistar rat brain cortical slices assessed as reversal of LDH release at 0.01 to 1 uM by spectrophometric analysis; format: functional, tissue-based; details: dose 0.01-1 µM
Cerebral cortex [15] = experiment: Neuroprotective activity against OGD/R induced injury in male Wistar rat brain cortical slices assessed as effect on LDH release at 1 uM by spectrophometric analysis; format: functional, tissue-based
Cerebral cortex [16] = experiment: Neuroprotective activity against OGD/R induced injury in male Wistar rat brain cortical slices assessed as reversal of tissue water gain at 0.01 to 1 uM; format: functional, tissue-based; details: dose 0.01-1 µM
Cerebral cortex [17] = experiment: Neuroprotective activity against OGD/R induced injury in male Wistar rat brain cortical slices assessed as reversal of LDH release at 0.001 to 10 uM by spectrophometric analysis; format: functional, tissue-based; details: dose 0.001-10 µM
Cerebral cortex [18] = experiment: Neuroprotective activity against OGD/R induced injury in male Wistar rat brain cortical slices assessed as reversal of tissue water gain at 0.001 to 10 uM; format: functional, tissue-based; details: dose 0.001-10 µM

R% [1]: 28.24%
Papp at 4 h [7]: 17 ×10⁻⁶ cm/s
Structure (SMILES): N/C(=N\c1nc2ccccc2s1)N1CCCSc2ccccc21
inhibition (SH-SY5Y [2]): 35%
inhibition (SH-SY5Y [3]): Active
Activity (Cerebral cortex [4]): Active
inhibition (SH-SY5Y [5]): Active
inhibition (SH-SY5Y [6]): 28.4%
inhibition (SH-SY5Y [8]): Active
inhibition (SH-SY5Y [9]): 28.4%
Activity (Cerebral cortex [10]): Active
inhibition (SH-SY5Y [11]): 28.4%

R% [1]: 10.73%
Papp at 4 h [7]: 17.2 ×10⁻⁶ cm/s
Structure (SMILES): CC(C)NCC(O)COc1cccc2ccccc12 (stereo not given) [PROPRANOLOL]

Structure (SMILES): N/C(=N\c1nc2ccc(OC(F)(F)F)cc2s1)N1CCCSc2cc(OC(F)(F)F)ccc21
Activity (Cerebral cortex [12]): inactive
Activity (Cerebral cortex [13]): inactive
Activity (Cerebral cortex [14]): inactive
Activity (Cerebral cortex [15]): inactive
Activity (Cerebral cortex [16]): Active

Structure (SMILES): N/C(=N\c1nc2ccc([N+](=O)[O-])cc2s1)N1CCCSc2cc([N+](=O)[O-])ccc21
Activity (Cerebral cortex [17]): inactive
Activity (Cerebral cortex [18]): inactive
